Experimental data as given in PMC3170876 (Chemmedchem, 2011).

Columns and labels:
human 11β-HSD1 = human 11β-HSD1 (Homo sapiens, UniProt P28845); test: 11β-HSD1 inhibition cellular assay; assay type: cell-based; details: for IC50: IC50, human 11β-HSD1, HEK293 cell line transfected with human HSD11B1 gene, mean of three measurements, variance less than 20 %; for inhibition at 1 µM: HEK293, read-out: Percent inhibition
Sequence of human 11β-HSD1 (P28845 whole entry): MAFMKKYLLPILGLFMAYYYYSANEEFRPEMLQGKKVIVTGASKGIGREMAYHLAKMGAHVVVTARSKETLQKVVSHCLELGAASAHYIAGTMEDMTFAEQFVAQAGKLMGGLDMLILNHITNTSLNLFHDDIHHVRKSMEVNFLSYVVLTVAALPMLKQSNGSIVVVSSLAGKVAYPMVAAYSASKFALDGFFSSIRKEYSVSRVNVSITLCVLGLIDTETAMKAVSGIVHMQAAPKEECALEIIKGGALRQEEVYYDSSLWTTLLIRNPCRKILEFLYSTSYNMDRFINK

IC50 (human 11β-HSD1)	melting point	inhibition at 1 µM (human 11β-HSD1)	SMILES
327 nM	–	–	Cc1csc(CSCC(=O)C23CC4CC(CC(C4)C2)C3)n1 [Compound 13, 1-(Adamantan-1-yl)-2-{[(4-methyl-1,3-thiazol-2-yl)methyl]sulfanyl}ethanone]
–	102 to 105 °C	–	Cc1nnc(SCC(=O)C23CC4CC(CC(C4)C2)C3)s1 [Compound 29, 1-(Adamantan-1-yl)-2-(5-methyl-[1,3,4]thiadiazol-2-ylsulfanyl)-ethanone]
129 nM	–	–	Cn1c(SCC(=O)C23CC4CC(CC(C4)C2)C3)nnc1C1CC1 [Compound 40, 1-(Adamantan-1-yl)-2-[(5-cyclopropyl-4-methyl-4H-1,2,4-triazol-3-yl)sulfanyl]ethanone]
71 nM	198 to 199 °C	–	Nc1nnc(SCC(=O)C23CC4CC(CC(C4)C2)C3)s1 [Compound 48, 1-(Adamantan-1-yl)-2-[(5-amino-1,3,4-thiadiazol-2-yl)sulfanyl]ethanone]
95 nM	149 to 150 °C	–	Cn1cnnc1S(=O)(=O)CC(=O)C12CC3CC(CC(C3)C1)C2 [Compound 36, 1-(Adamantan-1-yl)-2-(4-methyl-4H-[1,2,4]triazole-3-sulfonyl)ethanone]
4000 nM	–	–	CN(C)c1nnc(SCC(=O)C23CC4CC(CC(C4)C2)C3)s1 [Compound 45, 1-(Adamantan-1-yl)-2-{[5-(dimethylamino)-1,3,4-thiadiazol-2-yl]sulfanyl}ethanone]
–	77 to 80 °C	–	Cc1csc(COCC(=O)C23CC4CC(CC(C4)C2)C3)n1 [Compound 9, 1-(Adamantan-1-yl)-2-[(4-methyl-1,3-thiazol-2-yl)methoxy]ethanone]
848 nM	–	–	CC(=O)Nc1nnc(SCC(=O)C23CC4CC(CC(C4)C2)C3)s1 [Compound 50, N-(5-{[2-(Adamantan-1-yl)-2-oxoethyl]sulfanyl}-1,3,4-thiadiazol-2-yl)acetamide]
97 nM	–	–	COC(=O)Cc1nnc(SCC(=O)C23CC4CC(CC(C4)C2)C3)n1C [Compound 42, Methyl 2-(5-{[2-(adamantan-1-yl)-2-oxoethyl]sulfanyl}-4-methyl-4H-1,2,4-triazol-3-yl)acetate]
137 nM	–	–	Cc1nnc(SCC(=O)C23CC4CC(CC(C4)C2)C3)n1C(C)C [Compound 39, 1-(Adamantan-1-yl)-2-{[5-methyl-4-(propan-2-yl)-4H-1,2,4-triazol-3-yl]sulfanyl}ethanone]
–	–	67%	O=C(O)c1ccc(CSCC(=O)C23CC4CC(CC(C4)C2)C3)o1 [Compound 19, 5-(((2-(Adamantan-1-yl)-2-oxoethyl)thio)methyl)furan-2-carboxylic acid]
–	–	68%	CCSc1nnc(SCC(=O)C23CC4CC(CC(C4)C2)C3)s1 [Compound 47, 1-(Adamantan-1-yl)-2-{[5-(ethylsulfanyl)-1,3,4-thiadiazol-2-yl]sulfanyl}ethanone]
153 nM	–	–	CN(C)C(=O)c1ccc(CSCC(=O)C23CC4CC(CC(C4)C2)C3)o1 [Compound 20, 5-({[2-(Adamantan-1-yl)-2-oxoethyl]sulfanyl}methyl)-N,N-dimethylfuran-2-carboxamide]
143 nM	–	–	O=C(CSCc1cccs1)C12CC3CC(CC(C3)C1)C2 [Compound 10, 1-(Adamantan-1-yl)-2-(thiophen-2-ylmethylsulfanyl)ethanone]
153 nM	–	–	COCc1nnc(SCC(=O)C23CC4CC(CC(C4)C2)C3)n1C [Compound 41, 1-(Adamantan-1-yl)-2-{[5-(methoxymethyl)-4-methyl-4H-1,2,4-triazol-3-yl]sulfanyl}ethanone]
264 nM	–	–	COC(=O)c1ccc(CSCC(=O)C23CC4CC(CC(C4)C2)C3)o1 [Compound 18, Methyl 5-({[2-(adamantan-1-yl)-2-oxoethyl]sulfanyl}methyl)furan-2-carboxylate]
163 nM	–	–	O=C(CSCc1ccco1)C12CC3CC(CC(C3)C1)C2 [Compound 11, 1-(Adamantan-1-yl)-2-(furan-2-ylmethylsulfanyl)-ethanone]
